Where a chain is given by its changes, count along the chain named. Where two headings read alike, the source gives them in different places.
What was measured:
HilD [1] = target: T1, HilD (Salmonella typhimurium, UniProt P0CL08); assay: biochemical; assay type: binding; set-up: made in house; host or cells: E. coli BL21(DE3), pET15b
T1 sequence (P0CL08 1-309): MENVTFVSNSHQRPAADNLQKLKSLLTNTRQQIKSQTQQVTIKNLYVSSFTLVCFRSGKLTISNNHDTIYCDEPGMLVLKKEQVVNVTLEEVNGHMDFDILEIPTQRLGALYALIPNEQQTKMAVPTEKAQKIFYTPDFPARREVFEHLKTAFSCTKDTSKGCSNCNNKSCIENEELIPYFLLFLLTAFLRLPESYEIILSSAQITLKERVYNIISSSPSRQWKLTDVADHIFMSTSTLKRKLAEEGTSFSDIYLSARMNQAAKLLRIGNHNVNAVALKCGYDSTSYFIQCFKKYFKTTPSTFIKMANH
Experimental: (§1) Assays were performed as previously described in detail in Chowdhury et al. ([15], [16]). Briefly, 96-well polystyrene plates coated with various concentrations of fatty acids in coating buffer (0.05 M sodium carbonate-bicarbonate, pH 9.3) were incubated overnight at 4°C. The wells were washed three times with PBS, followed by the addition of 200 μL blocking buffer (1% Ficoll 400 in PBS). […] The wells were washed, incubated with a 1:1,000 dilution of anti-His tag antibody, and incubated at room temperature for an hour. After washing, the wells were incubated with a 1:5,000 dilution of anti-mouse secondary antibody for an hour. Finally, the wells were washed three times with PBS-T (PBS plus 0.1% Tween 20), and 100 μL OPD (o-phenylenediamine) substrate was added. After color development, the reaction was ended with 1 N sulfuric acid and read spectrophotometrically at 490 nm. Data were analyzed in GraphPad Prism. Nonlinear regression was plotted, and one-site total binding was performed to calculate Kd values.
hilD alleles were cloned into pET15b(+), expressed, and purified as described in detail previously ([15]). Briefly, the pET15b-6XHis-hilD or pET15b-6XHis-hilD^Q290A or pET15b-6XHis-hilD^K293A plasmid was transformed into E. coli BL21(DE3) for expression. Transformants were induced with 5 mM IPTG (isopropyl β-D-1-thiogalactopyranoside) for 4 h. Cultures were centrifuged, lysed, treated with TALON beads, and applied to protein purification columns. Bound protein was eluted and confirmed by SDS-PAGE. Following confirmation, eluted samples were dialyzed overnight. The final protein concentration and quality after dialysis were assessed by Bradford estimation and SDS-PAGE.

HilD-hilA complex = target: T2, HilD-hilA complex (Salmonella typhimurium, UniProt P0CL08); assay: EMSA of HilD binding to hilA promoter DNA; settings: c2-HDA 20 μM, t2-HDA 40 μM, oleic acid 50 μM; no formic acid
T2 construct: made in house; host or cells: E. coli BL21(DE3), pET15b
T2 sequence (P0CL08 1-309): T1 sequence (P0CL08 1-309)
Experimental: Assays were performed as previously described ([15], [16]). […] Various concentrations of the fatty acids (c2-HDA, 20 μM; t2-HDA, 40 μM; or oleic acid, 50 μM) or control solvents were added, and the reaction was incubated at room temperature for 1 h. Dye solution (10 mM Tris, 1 mM EDTA, 50% vol/vol glycerol, 0.001% wt/vol bromophenol blue) was added to a final concentration of 1×, and samples were separated on 7% acrylamide gels. DNA was stained using SYBR Safe and visualized in a Bio-Rad GelDoc imaging system.

HilD^Q290A = target: T3, HilD^Q290A (Salmonella typhimurium, UniProt P0CL08, Q290A); assay: ELISA binding of fatty acids to mutant HilD^Q290A
T3 construct: made in house; host or cells: E. coli BL21(DE3), pET15b
T3 sequence (P0CL08 1-309 Q290A): T1 sequence (P0CL08 1-309) with Q290A
Experimental: as §1
(§2) hilD alleles were cloned into pET15b(+), expressed, and purified as described in detail previously ([15]). Briefly, the pET15b-6XHis-hilD or pET15b-6XHis-hilD^Q290A or pET15b-6XHis-hilD^K293A plasmid was transformed into E. coli BL21(DE3) for expression. […] The final protein concentration and quality after dialysis were assessed by Bradford estimation and SDS-PAGE.

[2] = tested on: invasion gene hilA expression; assay: hilA-luxCDABE transcriptional reporter luciferase assay; assay type: cell-based; settings: no formic acid preincubation; 500 nM c2-HDA, 40 μM oleic acid, 10 mM propionic acid
Experimental: Salmonella strains carrying luxCDABE reporter plasmids were grown overnight in 5 mL LB broth with appropriate antibiotics. These were subcultured (1:100) in M9 minimal medium with 0.2% glucose and antibiotics for 16 h. […] These were incubated for 3 h at 37°C in an incubator without aeration. Dimethyl sulfoxide (DMSO) or different concentrations of fatty acids were added to the reaction, and replicate aliquots were introduced into the BioTek Synergy H1 microplate reader. Luminescence and OD600 were recorded every half-hour for 24 h. Data were analyzed in GraphPad Prism. For every treatment, the area under the curve (AUC) was calculated. DMSO was normalized to 100%, and other reactions were calculated accordingly.

[3] = tested on: invasion gene sipC expression; assay: sipC::lacZY reporter β-galactosidase assay; assay type: cell-based; settings: no formic acid preincubation; 10 μM c2-HDA, 40 μM oleic acid
Experimental: The β-galactosidase assay was performed using the method of Miller, as previously described in detail ([39]). Miller units were calculated using the following equation: Miller units = (OD420 × 1,000)/(OD600 × t × v), where t is the time (minutes) the reaction was allowed to continue before adding the stop solution, v is the volume of culture (mL) assayed, and OD420 and OD600 are the densities of the cultures at 420 and 600 nm, respectively. All reactions were performed in quadruplicates. Data were analyzed in Excel and plotted in GraphPad Prism.

HilD [4] = target: T1, HilD; assay type: cell-based; set-up: The stability of HilD in Salmonella carrying a chromosomal tetRA-hilD-3×FLAG tag; expressed in transfected cells; host or cells: Salmonella Typhimurium strain CA2446 (tetRA-hilD-3XFLAG attλ:pDX1::hilA'-lacZ)
Experimental: Assays were performed as previously described ([22]). Salmonella strains carrying a chromosomal tetracycline-inducible hilD with a C-terminal 3×FLAG tag and a hilA::lacZY fusion (for invasion gene expression assessment) were grown overnight in LB and then diluted 1:100 into LB buffered with 100 mM MOPS (pH 6.7) with 2.5 μg/mL tetracycline. […] After 1 h of incubation at 37°C with aeration, samples were collected to measure hilA::lacZY expression in a β-galactosidase assay. Individual cultures were then equilibrated to an OD600 of 1. New protein production was halted by adding an antibiotic combination (100 μg/mL rifampin, 200 μg/mL streptomycin, and 50 μg/mL spectinomycin). These cultures were incubated at 37°C with aeration, and 200-μL aliquots were collected every 30 min for 4 h. Samples were lysed in 5× Laemmli buffer, boiled, and immunoblotted with an anti-FLAG antibody to monitor HilD levels.

HilD^K293A = target: T4, HilD^K293A (Salmonella typhimurium, UniProt P0CL08, K293A); assay: ELISA binding of fatty acids to mutant HilD^K293A
T4 construct: made in house; host or cells: E. coli BL21(DE3), pET15b
T4 sequence (P0CL08 1-309 K293A): T1 sequence (P0CL08 1-309) with K293A
Experimental: as §1, §2

[5] = Kd, HilD preincubated with formic acid (500 μM)
[6] = Kd, HilD without formic acid preincubation
[7] = HilD preincubated with formic acid (500 μM), read-out: Kd
[8] = HilD without formic acid preincubation, read-out: Kd

Row | SMILES | Kd (HilD [1]; [5]) [µM] | Kd (HilD [1]; [6]) [µM] | effect on HilD-hilA complex (HilD-hilA complex) | Kd (HilD^Q290A) [µM] | effect on hilA expression [2] | effect on sipC expression [3] | Kd (HilD [1]; [7]) [µM] | Kd (HilD [1]; [8]) [µM] | HilD half-life (HilD [4]; fatty acid 20 μM after preincubation with formic acid (10 mM)) | HilD half-life (HilD [4]; fatty acid 20 μM, no formic acid preincubation (DMSO control ~227 min)) | Kd (HilD^K293A) [µM]
1 | CCCCCCCCCCCCC/C=C\C(=O)O [c2-HDA, cis-2-hexadecenoic acid] | 82 | 5.19 | disrupted the HilD-hilA complex | 12.6 | drastically reduced hilA expression | repressed |  |  |  |  | 
2 | CCCCCCCCCCCCC/C=C/C(=O)O [t2-HDA] |  |  | disrupted the HilD-hilA complex |  |  |  | 177 | 15.8 | ~ 127 min | ~ 28 min | 
3 | CCCCCCCCCCCCCCCCC/C=C\C(=O)O [c2-EA] |  |  |  |  |  |  | 381 | 96.6 |  |  | 
4 | CCCCCCCC/C=C\CCCCCCCC(=O)O [oleic acid] | 1370 | 136 | disrupted the HilD-hilA complex |  | severely repressed | repressed |  |  |  |  | 119
5 | CCC(=O)O [propionic acid] |  |  |  |  | severely repressed |  |  |  |  |  | 
